{
  "source": "patent US9546159B2",
  "about": "“N-substituted 3,4-bis (catechol) pyrrole compounds, and the preparation and use thereof in the treatment of cancer” (Centre National De La Recherche Scientifique (CNRS), priority 2012, dated 2017)",
  "type_in_all_cases": "cell-based",
  "key": {"[1]": {"system": "caspases 3 and 7 in HCT-116 cells", "assay": "caspases 3 and 7 activity (Apo-ONE test)", "conditions": "HCT-116, 24 hours, 5 nM to 75 nM", "description": "The activity of caspases 3 and 7, marker enzymes of apoptosis, was measured using the Apo-ONE (Promega) test after treating HCT-116 cells with compound (1) at concentrations varying from 5 nM to 75 nM."}, "[2]": {"system": "Akt protein serine 473 phosphorylation, FOXO3, peroxiredoxin 1 in HCT-116 cells", "assay": "survival pathway PI3 kinase-Akt-Foxo Western Blot", "conditions": "HCT-116, 24 hours", "description": "In view of the stoppage of the cell cycle in the G0/G1 phase associated with an autophagic response in the absence of apoptosis following treatment with compound (1), we studied the action of this compound on the survival pathway involving PI3 kinase-Akt-Foxo. This signalling pathway is very frequently found to be disrupted (by stimulation) in a large number of cancer cells and contributes to the survival thereof.\nIndeed, HCT-116 cells were exposed for 24 hours to the action of compound (1) at concentrations varying from 5 nM to 100 nm."}, "[3]": {"system": "HCT-116 cells", "assay": "counting live cells after trypan blue staining", "description": "The effect of compound (1) on cell growth was described in more detail on the HCT-116 cell line. This study was conducted as a function of the concentration and exposure time of the cells to the molecule under test (24 hrs, 48 hrs and 72 hrs) by counting the number of live cells after excluding dead cells by means of trypan blue staining.\nFIG. 2 represents the effect of compound (I) on the number and viability of HCT-116 cells as a function of the concentration thereof and the treatment time."}, "[4]": {"system": "HCT-116 cells", "assay": "mitochondrial transmembrane potential (JC-1 probe, flow cytometry)", "conditions": "HCT-116, 24 hours, 25 nM to 100 nM", "description": "The study of the mitochondrial transmembrane potential, Δψm, was conducted by flow cytometry, using the JC-1 probe (MitoProbe™ JC-1 assay, Molecular Probes). JC-1 is a lipophilic […] compound which selectively penetrates the mitochondria, the colour whereof changes from green to red when the transmembrane potential increases."}, "[5]": {"system": "HCT-116 cells", "assay": "cell cycle flow cytometry analysis", "conditions": "HCT-116, 24 hours, 30 and 50 nM", "description": "This effect is significant after 24 hours of exposure of the cells to compound (1) used at the 30 and 50 nM concentrations (FIG. 4)."}, "[6]": {"system": "normal human cells", "assay": "specificity of action: normal human cells versus cancer cells", "conditions": "in vitro, concentrations encompassing the IC50", "description": "(§1) In order to determine the specificity of action of compound (1) on cancer cells, we evaluated the effect thereof with respect to normal human HUVEC, NHDF and HFDPC cells and the HCT-116, U87 and K652 cancer cell annotations.\nThe IC50 values are thus up to 300 times higher for normal cells compared to those obtained for cancer cells."}, "[7]": {"system": "HUVEC cells (human umbilical vascular endothelial cells)", "assay": "cell growth, normal cells", "conditions": "72 hours of treatment", "description": "(§2) The biological activity of compound (1) was studied in vitro on 3 different cancer cell lines: • HCT-116 (colorectal carcinoma) • U87 (glioblastoma) • K562 (myeloid leukaemia) and on 3 normal non-cancerous cell types: • HUVEC (human umbilical vascular endothelial cells) • NHDF (human dermal fibroblasts) • HFDPC (human hair follicle dermal papilla cells).\n(§3) The cells selected for this study were incubated at 37° in the presence of compound (1) added in the culture medium at different concentrations and at different times.\n(§4) The effect of compound (1) on HCT-116, U87 and K562 cell growth was evaluated using a cell growth test (CellTiter-Blue™ m Cell Viability Assay, Promega). The growth curves and the IC50 values (concentration of compound inducing a 50% reduction of cell growth) determined after 72 hours of cell treatment with compound (1) are presented in FIG. 1. They are 30 nm for HCT-116 cells, 45 nM for U87 cells and 70 nM for K562.\nas §1"}, "[8]": {"system": "NHDF cells (human dermal fibroblasts)", "assay": "cell growth, normal cells", "conditions": "72 hours of treatment", "description": "as §2, §3, §4, §1"}, "[9]": {"system": "HFDPC (human hair follicle dermal papilla cells)", "assay": "cell growth, normal cells", "conditions": "72 hours of treatment", "description": "as §2, §3, §4, §1"}, "[10]": {"system": "intracellular H2O2 in HCT-116 cells", "assay": "intracellular H2O2 concentration (DCF-DA, flow cytometry)", "description": "The protein peroxiredoxin is an enzyme having a peroxidase activity, controlling the intracellular hydrogen peroxide (H2O2) concentration. Therefore, we evaluated the effect of compound (1) on the intracellular H2O2 concentration, using DCF-DA (2′,7′-dichlorofluorescein diacetate, Sigma) as a marker of intracellular H2O2. Hydrogen peroxide is an intracellular second messenger. It regulates, according to the concentration thereof, numerous functions such as proliferation or apoptosis. A reduction of the concentration thereof is associated with a decrease in proliferation."}, "[11]": {"system": "proteins p21 and p27 in HCT-116 cells", "assay": "Western Blot of proteins p21 and p27", "conditions": "HCT-116, 24 hours", "description": "The gene of the protein p27 is described as being regulated by FOXO3, whereas that of the protein p21 is controlled by the p53 transcription factor, stimulated inter alia by oxidative stress. The HCT-116 cells were treated with compound (1) for 24 hours. The cell extracts were then analysed by Western Blot."}, "[12]": {"system": "K562 (myeloid leukaemia)", "assay": "cell growth test (CellTiter-Blue Cell Viability Assay)", "conditions": "Homo sapiens; K562, 72 hours of treatment; read-out: IC50 (concentration of compound inducing a 50% reduction of cell growth)", "description": "as §2, §3, §4"}, "[13]": {"system": "U87 cells (glioblastoma)", "assay": "cell growth test (CellTiter-Blue Cell Viability Assay)", "conditions": "Homo sapiens, U-87 MG, 72 hours of treatment, read-out: IC50 (concentration of compound inducing a 50% reduction of cell growth)", "description": "as §2, §3, §4"}, "[14]": {"system": "HCT-116 cells (colorectal carcinoma)", "assay": "cell growth test (CellTiter-Blue Cell Viability Assay)", "conditions": "Homo sapiens, 72 hours of treatment, read-out: IC50 (concentration of compound inducing a 50% reduction of cell growth)", "description": "as §2, §3, §4"}, "[15]": {"system": "protein LC3-II in HCT-116 cells", "assay": "autophagy: Western Blot of LC3-II", "conditions": "HCT-116, 24 hours, 5 nM to 100 nm", "description": "In the aim of determining whether the stoppage of the cell cycle induced by compound (1) induces an autophagic reaction, the HCT-116 cells were treated with compound (1) at different doses for 24 hours. The cell extracts then underwent Western Blot analysis in order to view the expression of the protein LC3-II. Indeed, the protein LC3 exists in the cell either in cytosolic form (LC3-I) or associated with phagosomes (LC3-II). The latter is the marker of the autophagic reaction."}},
  "data": [
    {"compound": "O=[N+]([O-])c1cc(-c2cn(CCCN3CCCCCCCCCCCC3)cc2-c2cc(O)c(O)c([N+](=O)[O-])c2)cc(O)c1O", "note": "[compound (1), 5,5′-(1-(3-(Azacyclotridecan-1-yl)propyl)-1H-pyrrole-3,4-diyl)bis(3-nitrobenzene-1,2-diol)]", "values": [
      {"measurement": "activity of caspases 3 and 7", "setting": "[1]", "value": "lack of variations in the activity of these enzymes"},
      {"measurement": "expression of the protein FOXO3", "setting": "[2]; 5 nM to 100 nm", "value": "stimulates the expression of the protein FOXO3"},
      {"measurement": "expression of the protein peroxiredoxin 1", "setting": "[2]; 5 nM to 100 nm", "value": "stimulates the expression of the protein peroxiredoxin 1"},
      {"measurement": "Akt protein serine 473 phosphorylation", "setting": "[2]; from the 25 nm concentration", "value": "totally suppresses"},
      {"measurement": "nature of the action (cytostatic / cytotoxic)", "setting": "[3]; HCT-116", "value": "cytostatic and not cytotoxic"},
      {"measurement": "reduction of the number of cells", "setting": "[3]; HCT-116, 25 nM, 24 hours of treatment", "value": 40, "unit": "%"},
      {"measurement": "cell viability (trypan blue)", "setting": "[3]; HCT-116, 24, 48 and 72 hrs", "value": "lack of modification of cell viability"},
      {"measurement": "inhibition of the number of cells", "setting": "[3]; HCT-116, from 48 hours, concentrations greater than the IC50", "value": "up to 80%"},
      {"measurement": "mitochondrial transmembrane potential Δψm", "setting": "[4]", "value": "does not modify Δψm significantly"},
      {"measurement": "effect on the cell cycle", "setting": "[5]", "value": "blocks cell division in the G0/G1 phase"},
      {"measurement": "cytotoxicity with respect to normal human cells", "setting": "[6]", "value": "does not exhibit any cytotoxicity"},
      {"measurement": "IC50", "setting": "[7]", "value": 2000, "unit": "nM"},
      {"measurement": "IC50", "setting": "[8]", "value": 5000, "unit": "nM"},
      {"measurement": "IC50", "setting": "[9]", "value": 10000, "unit": "nM"},
      {"measurement": "dose dependence of the effect on intracellular H2O2", "setting": "[10]; HCT-116", "value": "dose dependent"},
      {"measurement": "decrease of the intracellular H2O2 concentration", "setting": "[10]; HCT-116, 50 nM, 18 hours of treatment", "value": "approximately 50%"},
      {"measurement": "expression of the protein p21", "setting": "[11]", "value": "no significant effect"},
      {"measurement": "expression of protein p27", "setting": "[11]; 25 and 50 nM", "value": "increase in the expression of protein p27"},
      {"measurement": "IC50", "setting": "[12]", "value": 70, "unit": "nM"},
      {"measurement": "IC50", "setting": "[13]", "value": 45, "unit": "nM"},
      {"measurement": "IC50", "setting": "[14]", "value": 30, "unit": "nM"},
      {"measurement": "expression of LC3-II", "setting": "[15]", "value": "increase in the expression of LC3-II"}
    ]}
  ]
}
